Structures are written as SMILES.

Common to all, as to format: in vivo, human
Data set [1] deals with Person with GAD anxiety symptoms. Briefly: Case history 3: donepezil in a patient with GAD anxiety symptoms persisting after MDD. The text has this: A person complained about insomnia, restlessness, tension, headaches, gastric symptoms, upset stomach, dizziness, fatigue, loss of appetite, and libido deficit. A person has been married for 13 years. Their spouse is a person working as an assistant director. The couple was well functioning, with two children, a child and a child in good health. A person was in good physical health and had no significant medical antecedent. A person had no previous psychiatric antecedent, nor any family history of mental disorders. […] […] a person is the youngest of 14 brothers and sisters.
A person was hospitalized in the Department of Psychiatry at Saint-Antoine Hospital and treated for MDD with venlafaxine from July 15 to Aug. […] Their anxiety consisted of excessive worrying, restlessness, tension, fatigue, loss of concentration, irritability, severe muscle tension and difficulty falling asleep. These symptoms met the GAD DSM IV criteria and persisted during the depressive episode and also when they no longer met the criteria for MDD. […] 9, 2005 to treat their anxiety symptoms. […] On Sep.

The subject of data set [2] is Person with Generalized Anxiety (GAD), PTSD and cannabis dependence. Description: Case History 2: donepezil in a patient with GAD, PTSD, cannabis dependence, alcohol dependence and binge-eating disorder.
Source text: a person has no other psychiatric antecedent.
Despite them on-going biweekly psychotherapy, they continued to abuse cannabis at about 2 to 3 joints a day.
Data set [3] has as its system Person with post-traumatic stress disorder (PTSD). Briefly: Case History 1: donepezil in a rape victim with PTSD after suspected GHB intake. The source says: A person had been living in NYC for their work since January 2005. On Jun. 15, 2005, they met some friends after dinner and went dancing with them. They experienced a strange sensation late in the evening after drinking a glass of champagne. They remembered feeling drowsy and confused. They had to stop dancing because of a severe sedation and took a taxi. A […] they didn't know until now accompanied them to their apartment, which was unusual for them.
They didn't remember anything about the taxi drive and their trip back home. They remembered being with an unknown person and strangely being led down on their couch in their living room and looking at them.
Thereafter they repeatedly saw themself waking up in the morning and looking at their bed where they had discovered a preservative, a proof that a sexual behaviour had occurred between 2 and 6 am.
They experienced terrifying nightmares and repetitive uncontrolled behaviour consisting of looking at […] waking up alone with a desperate feeling of being sexually abused and of loneliness. […] About the evening and the rape they remembered only their inability to move, refusing sexual advances of the unknown person, and feeling uncomfortable because of their unusual behaviour.
On Jun. 20, 2005, they consulted in the Department of Psychiatry at Saint-Antoine Hospital in Paris. […] A legal procedure was initiated in NYC before coming back to Paris. […] A toxicological analysis was performed using hair sample for detection of the suspected drug GHB.
During the initial interview, they were unable to give any detail about the evening and the night of the rape. A person requested a method to decrease their anxiety symptoms, insomnia and nightmares associated with the traumatic event. After a discussion about the case, it was decided on Jun.

Where [4] appears, read: 5 mg once a day, after one week.
The mark [5] stands for this setting: 5 mg once a day, patient report.
Setting [6] is: 5 mg once a day, after one week, on ongoing venlafaxine.
[7] abbreviates: two weeks after increase to 5 mg b.i.d.

Take `COc1ccc(C(CN(C)C)C2(O)CCCCC2)cc1` (stereo not drawn) [venlafaxine]: the anxiety symptoms result in data set [1] (ongoing venlafaxine 100 mg t.i.d.) was “did not respond”. Moreover, in data set [1] (treated from July 15 to Aug. 8, 2005, in hospital), the “depression (MDD)” value was “recovered completely”.

On to `COc1cc2c(cc1OC)C(=O)C(CC1CCN(Cc3ccccc3)CC1)C2.Cl` (racemic) [donepezil, (±)-2,3-dihydro-5,6-dimethoxy-2-[[1-(phenylmethyl)-4-piperidinyl]methyl]-1H-inden-1-one hydrochloride], for which, in data set [2] (5 mg once a day), the alcohol intake entry is “significantly produced a decrease”; the “verbal fluency and cognitive performances” value was “did not improve”. In data set [2] (setting [4]), the binge-eating disorder entry is recorded as “completely disappeared” and the nightmares result is recorded as “completely disappeared”. In addition, in data set [2] (5 mg once a day, follow-up), the “craving for caffeine, nicotine, cannabis and binge-eating” value was “significantly improved to the extent of disappearing”. Moreover, in data set [2] (5 mg once a day, follow-up August 30 and Sept. 2, 2005), the “GAD anxiety symptoms (nervousness, muscle tension, restlessness, anxiety, worry, insomnia, and tremor)” value is “much improved”. Further, in data set [2] (setting [5]), the euphoria entry is on record as “no longer euphoric”, the judgement result was “significantly improved”, the motor coordination result is given as “improved” and the “sensations of slowed time” value is given as “no more sensations of slowed time”. For the same compound, in data set [2] (setting [5]), the social withdrawal entry was “no longer socially withdrawn”. The cannabis smoking entry in data set [2] (5 mg once a day, before: 2 to 3 joints a day) is on record as “completely stop cannabis smoking without any withdrawal symptoms, nor craving symptoms”. Besides, in data set [2] (increased to 5 mg b.i.d.), the “effect of dose increase (nightmares related to drug withdrawal)” value was “further improvement with disappearance of nightmares”. For the same compound, in data set [1] (setting [6]), the anti-anxiety effect result is “definite anti-anxiety effect” and the side effects entry is “No side effects were observed”. Further, in data set [1] (6 days after increase to 5 mg b.i.d.), the “anxiety symptoms / return to work” value is on record as “able to return to work without any anxious symptoms”. In data set [3] (5 mg once a day, after 7 days), the “recall of details of the traumatic event” value is on record as “some of the details of the post-traumatic event”; the sleep and nightmares result was “slept better without nightmares”. Further, in data set [3] (5 mg once a day, after one week of treatment), the anxiety result is “began to feel less anxious”. Moreover, in data set [3] (setting [7]), the anxiety and tension result is recorded as “no more anxious nor tense”; the sleep entry is on record as “returned to normal without nightmares”.

On to `CN1CCN2c3ncccc3Cc3ccccc3C2C1` (stereo not drawn) [mirtazapine], for which the “depressive symptoms (MDD)” value in data set [2] (15 mg h.s. with biweekly psychotherapy, after 2 months of treatment) was “complete recovery”.

Source of the values: patent US20070082928A1, “Method for treating anxiety disorders, substance abuse/dependence, binge-eating disorders, insomnia and drug-induced flashbacks” (priority 2005, published 2007).
